Reference: patent publication US20120142705A1, “ISATIN AND OXINDOLE COMPOUNDS” (priority 2010, published 2012)

biological target: T1, Recombinant human liver GK1 (GST-GK) (Homo sapiens, UniProt P35557); test: In vitro glucokinase activity, G6PDH-coupled spectrophotometric assay; type: biochemical; conditions: 5 mM D-glucose, 30° C., pH 7.1
T1 construct: made in house; host or cells: E. coli
T1 sequence (P35557 1-466 isoform P35557-2): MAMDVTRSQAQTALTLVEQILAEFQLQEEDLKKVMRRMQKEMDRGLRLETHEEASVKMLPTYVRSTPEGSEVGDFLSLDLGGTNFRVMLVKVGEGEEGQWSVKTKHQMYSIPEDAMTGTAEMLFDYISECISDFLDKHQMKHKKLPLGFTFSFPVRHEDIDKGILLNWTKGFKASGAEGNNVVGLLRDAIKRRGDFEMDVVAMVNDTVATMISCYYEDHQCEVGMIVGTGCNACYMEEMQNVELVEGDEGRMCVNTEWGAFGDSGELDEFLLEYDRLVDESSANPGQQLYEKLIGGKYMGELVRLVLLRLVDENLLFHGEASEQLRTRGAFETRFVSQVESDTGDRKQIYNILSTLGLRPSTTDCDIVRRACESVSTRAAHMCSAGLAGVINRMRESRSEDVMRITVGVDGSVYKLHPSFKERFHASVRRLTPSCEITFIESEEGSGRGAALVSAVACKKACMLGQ
Method in brief: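 GST-fused human liver GK1 from E. coli, run at 30° C. in pH 7.1 HEPES with 5 mM glucose, 1 mM ATP and 10% DMSO, coupled via G6PDH to NADH. OD340 rate measured after enzyme start; SC1.5 is the activator concentration raising activity 50% over DMSO control.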

Row | Compound | SC1.5 (concentration of activator that produced a 50% increase in the activity of GK) [µM]
1 | O=C(Nc1ccccn1)C(CC1CCCC1)N1C(=O)Cc2ccccc21 (centres unmarked) [Example 8, 3-Cyclopentyl-2-(2-oxo-2,3-dihydro-indol-1-yl)-N-pyridin-2-yl-propionamide] | 4.93
2 | COc1ccc2c(c1)C(=O)C(=O)N2C(CC1CCCC1)C(=O)Nc1cnccn1 (centres unmarked) [Example 45, 3-Cyclopentyl-2-(5-methoxy-2,3-dioxo-2,3-dihydro-indol-1-yl)-N-pyrazin-2-yl-propionamide] | 12.29
3 | O=C1C(=O)N(C(CC2CCCC2)C(=O)Nc2cnccn2)c2ccc(Br)cc21 (centres unmarked) [Example 60, 2-(5-Bromo-2,3-dioxo-2,3-dihydro-indol-1-yl)-3-cyclopentyl-N-pyrazin-2-yl-propionamide] | 5.48
4 | CC(C)CC(C(=O)Nc1nccs1)N1C(=O)C(=O)c2cc(OC(F)(F)F)ccc21 (centres unmarked) [Example 40, 2-(2,3-Dioxo-5-trifluoromethoxy-2,3-dihydro-indol-1-yl)-4-methyl-pentanoic acid thiazol-2-ylamide] | 5.97
5 | Cn1ccc(NC(=O)C(CC2CCCC2)N2C(=O)C(=O)c3cc(Br)ccc32)n1 (centres unmarked) [Example 62, 2-(5-Bromo-2,3-dioxo-2,3-dihydro-indol-1-yl)-3-cyclopentyl-N-(1-methyl-1H-pyrazol-3-yl)-propionamide] | 6.18
6 | Cn1ccc(NC(=O)C(CC2CCCC2)N2C(=O)Cc3cc(Br)ccc32)n1 (centres unmarked) [Example 65, 2-(5-Bromo-2-oxo-2,3-dihydro-indol-1-yl)-3-cyclopentyl-N-(1-methyl-1H-pyrazol-3-yl)-propionamide] | 2.71
7 | CC(C)CC(C(=O)Nc1cnccn1)N1C(=O)Cc2cc(Br)ccc21 (centres unmarked) [Example 75, 2-(5-Bromo-2-oxo-2,3-dihydro-indol-1-yl)-4-methyl-pentanoic acid pyrazin-2-ylamide] | 11.4
8 | CC(C)CC(C(=O)Nc1cnccn1)N1C(=O)C(=O)c2cc(OC(F)(F)F)ccc21 (centres unmarked) [Example 37, 2-(2,3-Dioxo-5-trifluoromethoxy-2,3-dihydro-indol-1-yl)-4-methyl-pentanoic acid pyrazin-2-ylamide] | 19.72
9 | CC(C)(O)Cn1ccc(NC(=O)C(CC2CCCC2)N2C(=O)Cc3ccccc32)n1 (centres unmarked) [Example 59, 3-Cyclopentyl-N-[1-(2-hydroxy-2-methyl-propyl)-1H-pyrazol-3-yl]-2-(2-oxo-2,3-dihydro-indol-1-yl)-propionamide] | 3.87
10 | COc1ccc2c(c1)CC(=O)N2C(CC1CCCC1)C(=O)Nc1cnccn1 (centres unmarked) [Example 52, 3-Cyclopentyl-2-(5-methoxy-2-oxo-2,3-dihydro-indol-1-yl)-N-pyrazin-2-yl-propionamide] | 4.76
11 | Cc1ccc2c(c1)C(=O)C(=O)N2C(CC1CCCC1)C(=O)Nc1ccn(C)n1 (centres unmarked) [Example 78, 3-Cyclopentyl-2-(5-methyl-2,3-dioxo-2,3-dihydro-indol-1-yl)-N-(1-methyl-1H-pyrazol-3-yl)-propionamide] | 29.38
12 | Cc1ccc2c(c1)C(=O)C(=O)N2C(CC1CCCC1)C(=O)Nc1nccs1 (centres unmarked) [Example 79, 3-Cyclopentyl-2-(5-methyl-2,3-dioxo-2,3-dihydro-indol-1-yl)-N-thiazol-2-yl-propionamide] | 16.22

Next, values leading:

Row | SC1.5 (concentration of activator that produced a 50% increase in the activity of GK) [µM] | Compound
13 | 0.53 | Cc1ccc2c(c1)N(C(CC1CCCC1)C(=O)Nc1nccs1)C(=O)C2 (centres unmarked) [Example 129, 3-Cyclopentyl-2-(6-methyl-2-oxo-2,3-dihydro-indol-1-yl)-N-thiazol-2-yl-propionamide]
14 | 0.6 | O=C1C(=O)N(C(CC2CCCC2)C(=O)Nc2nccs2)c2cc(Cl)ccc21 (centres unmarked) [Example 117, 2-(6-Chloro-2,3-dioxo-2,3-dihydro-indol-1-yl)-3-cyclopentyl-N-thiazol-2-yl-propionamide]
15 | 0.45 | O=C(Nc1nccs1)C(CC1CCCC1)N1C(=O)Cc2ccc(F)cc21 (centres unmarked) [Example 125, 3-Cyclopentyl-2-(6-fluoro-2-oxo-2,3-dihydro-indol-1-yl)-N-thiazol-2-yl-propionamide]
16 | 0.49 | O=C(Nc1ccccn1)C(CC1CCCC1)N1C(=O)Cc2cc(Cl)ccc21 (centres unmarked) [Example 100, 2-(5-Chloro-2-oxo-2,3-dihydro-indol-1-yl)-3-cyclopentyl-N-pyridin-2-yl-propionamide]
17 | 2.45 | Cc1ccc2c(c1)CC(=O)N2C(CC1CCCC1)C(=O)Nc1nccs1 (centres unmarked) [Example 82, 3-Cyclopentyl-2-(5-methyl-2-oxo-2,3-dihydro-indol-1-yl)-N-thiazol-2-yl-propionamide]
18 | 1.91 | N#Cc1ccc2c(c1)N(C(CC1CCCC1)C(=O)Nc1ccccn1)C(=O)C2 (centres unmarked) [Example 137, 2-(6-Cyano-2-oxo-2,3-dihydro-indol-1-yl)-3-cyclopentyl-N-pyridin-2-yl-propionamide]
19 | 1.49 | CC(C)CC(C(=O)Nc1ccccn1)N1C(=O)C(=O)c2ccc(Cl)cc21 (centres unmarked) [Example 110, 2-(6-Chloro-2,3-dioxo-2,3-dihydro-indol-1-yl)-4-methyl-pentanoic acid pyridin-2-ylamide]
20 | 4.04 | O=C1C(=O)N(C(CC2CCCC2)C(=O)Nc2cnccn2)c2ccc(Cl)cc21 (centres unmarked) [Example 96, 2-(5-Chloro-2,3-dioxo-2,3-dihydro-indol-1-yl)-3-cyclopentyl-N-pyrazin-2-yl-propionamide]
21 | 0.9 | O=C1C(=O)N(C(CC2CCCC2)C(=O)Nc2cnccn2)c2cc(Cl)ccc21 (centres unmarked) [Example 120, 2-(6-Chloro-2,3-dioxo-2,3-dihydro-indol-1-yl)-3-cyclopentyl-N-pyrazin-2-yl-propionamide]
22 | 3.83 | Cc1ccc2c(c1)CC(=O)N2C(CC1CCCC1)C(=O)Nc1ccccn1 (centres unmarked) [Example 80, 3-Cyclopentyl-2-(5-methyl-2-oxo-2,3-dihydro-indol-1-yl)-N-pyridin-2-yl-propionamide]
23 | 4.47 | Cc1ccc2c(c1)CC(=O)N2C(CC1CCCC1)C(=O)Nc1cnccn1 (centres unmarked) [Example 83, 3-Cyclopentyl-2-(5-methyl-2-oxo-2,3-dihydro-indol-1-yl)-N-pyrazin-2-yl-propionamide]

same assay, conditions: @ 30 uM; 5 mM D-glucose, 30° C.

Row | fold induction at 30 µM | Compound
24 | 1.49 | COc1ccc2c(c1)C(=O)C(=O)N2C(CC(C)C)C(=O)Nc1ccccn1 (centres unmarked) [Example 54, 2-(5-Methoxy-2,3-dioxo-2,3-dihydro-indol-1-yl)-4-methyl-pentanoic acid pyridin-2-ylamide]
25 | 1.24 | CC(C)CC(C(=O)Nc1ccn(C)n1)N1C(=O)C(=O)c2c(Cl)cccc21 (centres unmarked) [Example 19, 2-(4-Chloro-2,3-dioxo-2,3-dihydro-indol-1-yl)-4-methyl-pentanoic acid (1-methyl-1H-pyrazol-3-yl)-amide]
26 | 1.16 | COc1ccc2c(c1)C(=O)C(=O)N2C(CC(C)C)C(=O)Nc1cnccn1 (centres unmarked) [Example 53, 2-(5-Methoxy-2,3-dioxo-2,3-dihydro-indol-1-yl)-4-methyl-pentanoic acid pyrazin-2-ylamide]
27 | 1.39 | CC(C)CC(C(=O)Nc1ccn(C)n1)N1C(=O)Cc2c(Cl)cccc21 (centres unmarked) [Example 27, 2-(4-Chloro-2-oxo-2,3-dihydro-indol-1-yl)-4-methyl-pentanoic acid (1-methyl-1H-pyrazol-3-yl)-amide]
28 | 1.23 | Cc1ccc2c(c1)CC(=O)N2C(CC(C)C)C(=O)Nc1ccn(C)n1 (centres unmarked) [Example 89, 4-Methyl-2-(5-methyl-2-oxo-2,3-dihydro-indol-1-yl)-pentanoic acid (1-methyl-1H-pyrazol-3-yl)-amide]
29 | 1.39 | CC(C)CC(C(=O)Nc1cnccn1)N1C(=O)C(=O)c2c(Cl)cccc21 (centres unmarked) [Example 17, 2-(4-Chloro-2,3-dioxo-2,3-dihydro-indol-1-yl)-4-methyl-pentanoic acid pyrazin-2-ylamide]
30 | 1.33 | CC(C)CC(C(=O)Nc1ccccn1)N1C(=O)C(=O)c2ccccc21 (centres unmarked) [Example 9, 2-(2,3-Dioxo-2,3-dihydro-indol-1-yl)-4-methyl-pentanoic acid pyridin-2-ylamide]
31 | 1.39 | COc1ccc2c(c1)C(=O)C(=O)N2C(CC(C)C)C(=O)Nc1nccs1 (centres unmarked) [Example 55, 2-(5-Methoxy-2,3-dioxo-2,3-dihydro-indol-1-yl)-4-methyl-pentanoic acid thiazol-2-ylamide]
32 | 1.2 | CC(C)CC(C(=O)Nc1nccs1)N1C(=O)C(=O)c2ccccc21 (centres unmarked) [Example 10, 2-(2,3-Dioxo-2,3-dihydro-indol-1-yl)-4-methyl-pentanoic acid thiazol-2-ylamide]
